Measurements: patent US20240101599A1, “PEPTIDE, CELL GROWTH PROMOTER, PROTEIN PRODUCTION PROMOTER, CULTURE MEDIUM, CELL GROWTH METHOD USING PEPTIDE, AND PROTEIN PRODUCTION METHOD USING PEPTIDE” (Maruhachi Muramatsu, Inc., priority 2020, published 2024)
Where two headings read alike, the source gives them in different places. Peptide text beside a SMILES is read from it.

How the values were obtained:
[1] = system: serum-free floating CHO DP-12; conditions: GEK 2.05 mM, DGP 1.11 mM + medium supplemented with vitamins and the like; for Amount of protein produced: ELISA
Method: 5 mL of each of a DMEM/F12 basal medium, a medium supplemented with vitamins and the like (DMEM/F12 basal medium+a component supplemented with vitamins and the like), and each peptide solution was added to each well of a 24-well (Deep well) cassette of Micro-24 Bioreactor System (manufactured by Nihon Pall Corporation) to perform culture overnight under the conditions of 37° C., pH 7, and a stirring speed of 650 rpm. On the next day, pH calibration was performed, and thereafter 2 mL of the cell suspension prepared at 3.5×10^5 cells/mL was added to each well of the 24-well (Deep well) cassette, seeded such that the cell density of the floating cells was 1×10^5 cells/mL (7 mL/well), and cultured in the following evaluation medium under culture conditions of 37° C., pH 7, a stirring speed of 650 rpm, and dissolved oxygen of 30%.
• DMEM/F12 basal medium • Medium supplemented with vitamins and the like (basal medium+component supplemented with vitamins and the like) • GEK (2.05 mM)+medium supplemented with vitamins and the like • DGP (1.11 mM)+medium supplemented with vitamins and the like
As a culture medium, a DMEM/F12 basal medium in which 200 nM of methotrexate, 10 μg/mL of insulin, 5.5 μg/mL of transferrin, 6.7 ng/mL of sodium selenite, 10 μL/mL of Anti-Clumping Agent, and 10 μL/mL of 10% Pluronic F68 were blended in a DMEM/F12 culture medium (Gibco) was used.
After the third day of culture, 200 pμL of the culture medium was recovered in a 1.5 mL tube from each well of the 24-well (Deep well) cassette. 50 μL out of this was put in another 1.5 mL tube, and after adding 50 μL of trypan blue to sufficiently suspend, the viable cell count and the viability were measured using a cell counter (Countess II, manufactured by Life Technologies Corporation).
After the third day of culture, 150 μL out of 200 μL of the culture medium recovered from each well of the 24-well (Deep well) cassette was subjected to a centrifugation operation (5,000 rpm, for 5 minutes) in a 1.5 mL tube, and the supernatant was separately recovered to measure the amount of produced protein by ELISA.

[2] = system: CHO-K1; test: Cell growth test of each peptide on coating agent for 3 days; format: cell-based; parameters: Viability, 1 / Viability, 2 / Viability, 3 / Viability, Average: unit not given here; conditions: 2.1 mM Gly-Glu-Lys, poly-L-lysine coating; for Cells cell count, Average / Viability, Average: average n=3, 2.2 mM Asp-Gly-Pro; for Cells cell count, 1 / Viability, 1: replicate 1, 2.2 mM Asp-Gly-Pro; for Cells cell count, 2 / Viability, 2: replicate 2, 2.2 mM Asp-Gly-Pro; for Cells cell count, 3 / Viability, 3: replicate 3, 2.2 mM Asp-Gly-Pro
Method: Peptides having the sequences of Gly-Glu-Lys (GEK) and Asp-Gly-Pro (DGP) were synthesized to prepare each peptide solution such that the concentration was a concentration at which the cell number increased the most within a range of 0 mM to 5 mM. In other words, Gly-Glu-Lys (GEK) was adjusted to 21 mM, and Asp-Gly-Pro (DGP) was adjusted to 22 mM, and an amount of 1/10 of the total culture medium volume was added to each well immediately before the cell culture test such that final concentrations were 2.1 mM and 2.2 mM, respectively.
Poly-L-lysine (Peptide Institute, Inc., Poly-L-Lysine Hydrochloride, code: 3075) was prepared to 0.1 mg/mL, and 200 μL was dispensed into each well of a 24-well plate, which was left to stand in an incubator at 37° C. for 2 hours. After removing the residual liquid with an aspirator, rinsing was performed with distilled water, irradiation was performed with a UV lamp in a clean bench without a lid, and drying was performed overnight to sterilize. A cell suspension prepared such that CHO-K1 (RIKEN BioResource Research Center, cell number: RCB2330) was at 4×10^4 cells/mL was seeded in a 24-well plate at 500 μL/well and cultured in an incubator at 37° C. and 5% CO2 for 24 hours. As a culture medium, an MEMα culture medium (Gibco) containing 10% FBS was used.
After removing the culture medium from each well and washing with the MEMα culture medium (500 μL), 450 μL of a new MEMα culture medium was dispensed into each well, and each peptide solution (50 μL) was added (total 500 μL/well) to perform culture for 3 days. The cells were recovered to count the cell number. A similar culture test was performed using a system containing neither peptide nor FBS as a comparative sample.
The culture medium in each well was recovered in a 1.5 mL tube to be rinsed with 200 μL of MEMα, and the rinsed liquid was also recovered in the same 1.5 mL tube. Thereafter, 100 μL of trypsin was added and incubated for 3 minutes. After rinsing with 300 μL of MEMα containing 10% FBS, the rinsed liquid was also recovered in the same 1.5 mL tube. After rinsing again with 200 μL of MEMa containing 10% FBS, the rinsed liquid was also recovered in the same 1.5 mL tube.
A centrifugation operation was performed on the cells recovered in the 1.5 mL tube. The centrifugation conditions were 1,000 rpm, 10 minutes, and 4° C.
The supernatant was removed, and 300 μL of Cold PBS (phosphate buffered saline) was added to perform a centrifugation operation under the same conditions. The present operation was repeated twice.
Suspension was carried out with 100 μL of Binding Buffer, and 2 μL of propidium iodide (PI) was added and stirred in the tube to cause a reaction for 15 minutes at room temperature and with light shielding. Thereafter, the viable cell count and the viability were measured with a flow cytometer.
The above preparation, culture, and measurement were performed with n=3. Table 13 and FIG. 13 show the viable cell count in each peptide solution, and Table 14 and FIG. 14 show the cell viability in each peptide solution.

[3] = system: serum-free floating CHO DP-12; test: Protein production test on AGK and GPP in floating cell system; format: cell-based; conditions: AGK 3.95 mM, GPP 4.40 mM + medium supplemented with vitamins and the like, ELISA
Method: Peptides having the sequences of Ala-Gly-Lys (AGK) and Gly-Pro-Pro (GPP) were synthesized to prepare peptide solutions of 5.53 mM of Ala-Gly-Lys (AGK) and 6.16 mM of Gly-Pro-Pro (GPP).
5 mL of each of a basal medium, a medium supplemented with vitamins and the like (basal medium +a component supplemented with vitamins and the like), and each peptide solution was added to each well of a 24-well (Deep well) cassette of Micro-24 Bioreactor System (manufactured by Nihon Pall Corporation) to perform culture overnight under the conditions of 37° C., pH 7, and 650 rpm. On the next day, pH calibration was performed, and thereafter 2 mL of the cell suspension prepared at 3.5×10^5 cells/mL was added to each well of the 24-well (Deep well) cassette, seeded such that the cell density of the floating cells was 1×10^5 cells/mL (7 mL/well), and cultured in the following evaluation medium under culture conditions of 37° C., pH 7, 650 rpm, and dissolved oxygen of 30%.
• Basal medium • Medium supplemented with vitamins and the like (basal medium+component supplemented with vitamins and the like) • AGK (3.95 mM)+medium supplemented with vitamins and the like • GPP (4.40 mM)+medium supplemented with vitamins and the like
As a culture medium, a basal medium in which 200 nM of methotrexate, 10 μg/mL of insulin, 5.5 μg/mL of transferrin, 6.7 ng/mL of sodium selenite, 10 μL/mL of Anti-Clumping Agent, and 10 μL/mL of 10% Pluronic F68 were blended in a DMEM/F12 culture medium (Gibco) was used.
As the floating cells used, serum-free floating CHO DP-12 obtained by acclimating CHO DP-12 (ATCC, Cat. No. CRL-12445) to serum-free flotation and subculturing using a 100 mL volume Erlenmeyer flask and with a shaking culture device (Custom Bio Shaker CO2-BR-43FL, TAITEC CORPORATION) under the culture conditions of 37° C., 5% CO2, and a stirring speed of 125 rpm was used.
After the third day of culture, 150 μL of the culture medium was recovered in a 1.5 mL tube from each well of the 24-well (Deep well) cassette to perform a centrifugation operation (5,000 rpm, for 5 minutes), and the supernatant was recovered to measure the amount of produced protein by ELISA.

Molecule | cell number ([1]; Day 0) | cell number ([1]; Day 3) | Amount of protein produced ([1]; Day 3) [mg/L] | cell number ([1]; Day 4) | Amount of protein produced ([1]; Day 4) [mg/L] | cell number ([1]; Day 5) | Amount of protein produced ([1]; Day 5) [mg/L] | cell number ([1]; Day 6) | Amount of protein produced ([1]; Day 6) [mg/L] | cell number ([1]; Day 7) | Amount of protein produced ([1]; Day 7) [mg/L] | Cells cell count, Average [2] | Viability, Average [2] | Cells cell count, 1 [2] | Viability, 1 [2] | Cells cell count, 2 [2] | Viability, 2 [2] | Cells cell count, 3 [2] | Viability, 3 [2] | Amount of protein produced ([3]; Day 3) [mg/L] | further results
Asp-Gly-Pro [DGP] | 0.10 ×10^6cells/ml | 1.15 ×10^6cells/ml | 19.86 | 2.52 ×10^6cells/ml | 43.99 | 2.58 ×10^6cells/ml | 63.65 | 3.50 ×10^6cells/ml | 82.54 | 3.01 ×10^6cells/ml | 104.75 | 11.99 ×10^4 | 78.5 | 11.69 ×10^4 | 77.9 | 10.47 ×10^4 | 75.6 | 13.82 ×10^4 | 82.0 | – | Viability ([1]; Day 0): 98.0%; Viability ([1]; Day 3): 97.50%; Viability ([1]; Day 4): 97.50%; Viability ([1]; Day 5): 94.50%; Viability ([1]; Day 6): 87.00%; Viability ([1]; Day 7): 81.50%
NCCCC[C@H](NC(=O)[C@H](CCC(=O)O)NC(=O)CN)C(=O)O [GEK, Gly-Glu-Lys] (H-Gly-Glu-Lys-OH; N-terminus and C-terminus assumed) | 0.10 ×10^6cells/ml | 1.73 ×10^6cells/ml | 26.32 | 2.40 ×10^6cells/ml | 54.96 | 2.65 ×10^6cells/ml | 75.54 | 2.64 ×10^6cells/ml | 98.46 | 3.05 ×10^6cells/ml | 127.08 | 19.35 ×10^4 | 94.5 | 17.94 ×10^4 | 94.7 | 19.72 ×10^4 | 95.1 | 20.39 ×10^4 | 93.8 | – | –
C[C@H](N)C(=O)NCC(=O)N[C@@H](CCCCN)C(=O)O [AGK, Ala-Gly-Lys] (H-Ala-Gly-Lys-OH; N-terminus and C-terminus assumed) | – | – | – | – | – | – | – | – | – | – | – | – | – | – | – | – | – | – | – | 17.74 | Amount of protein produced ([3]; Day 4): 31.36 mg/L; Amount of protein produced ([3]; Day 5): 49.43 mg/L; Amount of protein produced ([3]; Day 6): 65.58 mg/L; Amount of protein produced ([3]; Day 7): 73.46 mg/L
Gly-Pro-Pro [GPP] | – | – | – | – | – | – | – | – | – | – | – | – | – | – | – | – | – | – | – | 14.95 | Amount of protein produced ([3]; Day 4): 32.30 mg/L; Amount of protein produced ([3]; Day 5): 52.53 mg/L; Amount of protein produced ([3]; Day 6): 67.01 mg/L; Amount of protein produced ([3]; Day 7): 80.86 mg/L
